Measurements reported in patent US20240270748A1 (Merck Patent GmbH, priority 2021, published 2024).

Assays:
[1] = tested on: NCI-H226 cells; experiment: Viability assay in NCI-H226 (Yap-dependent) cells, CyQuant; type: cell-based, human; details: class symbols
Summary of the method: (§1)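 Seeded cells were dosed 24 h later in duplicate (10-point, 1:3 dilutions, top 30 μM final, 0.3% DMSO) and incubated 96 h at 37 °C. Viability was read with CyQUANT DNA dye after 1 h, fluorescence bottom read. NCI-H226 in RPMI 1640 medium; SW620 YAP/TAZ CRISPR knockout in DMEM/F-12 medium.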

[2] = tested on: SW620 Yap KO cells; experiment: Viability assay in SW620 Yap KO (Yap independent) cells, CyQuant; type: cell-based; details: Homo sapiens, SW-620, 96 h
Summary of the method: as §1

[3] = tested on: YAP-TEAD interaction; experiment: SK-HEP-1 reporter assay (8xTEAD responsive elements driving NanoLuc luciferase); type: cell-based
Summary of the method: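 Reporter read-out: NanoLuc luminescence from 8×TEAD elements stably integrated in SK-HEP-1 cells, after 24 h compound exposure at 37° C. Ten concentrations tested in duplicate, top 30 μM final, 0.3% DMSO; IC50 from curve.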

[4] = n.d. = value not detectable below threshold given in parentheses, ND = not determinable within the entire range
[5] = Homo sapiens, SK-HEP1, SK-HEP-1 reporter assay, class symbols
[6] = Homo sapiens, SK-HEP1, SK-HEP-1 reporter assay, n.d. = value not detectable below threshold given in parentheses, ND = not determinable within the entire range

Structure (SMILES)	IC50 ([1]; Homo sapiens, NCI-H226, 96 h) [µM]	IC50 [2, 4] [µM]	IC50 [3, 5] [µM]	IC50 ([2]; class symbols) [µM]	IC50 [3, 6] [µM]	IC50 ([1]; 96 h) [µM]	IC50 ([3]; SK-HEP-1 reporter assay, class symbols) [µM]
Cc1c2c3cc(C(=O)N[C@H](C)CO)ccc3n(-c3ccc(C(F)(F)F)cc3)c2nn1C [Example C97, N-[(2R)-1-hydroxypropan-2-yl]-2,3-dimethyl-8-[4-(trifluoromethyl)phenyl]-2H,8H-pyrazolo[3,4-b]indole-5-carboxamide]	0.001 to 0.1	> 30	0.01 to 0.1	–	–	–	–
Cc1c2c3cc(C(=O)NCc4ccncc4)ccc3n(-c3ccc(C(F)(F)F)cc3)c2nn1C [Example C98, 2,3-dimethyl-N-[(pyridin-4-yl)methyl]-8-[4-(trifluoromethyl)phenyl]-2H,8H-pyrazolo[3,4-b]indole-5-carboxamide]	0.001 to 0.1	> 3.2	0.01 to 0.1	–	–	–	–
Cc1c2c3cc(C(=O)N[C@@H](CO)c4ccccn4)ccc3n(-c3ccc(C(F)(F)F)cc3)c2nn1C [Example C99, N-[(1R)-2-hydroxy-1-(pyridin-2-yl)ethyl]-2,3-dimethyl-8-[4-(trifluoromethyl)phenyl]-2H,8H-pyrazolo[3,4-b]indole-5-carboxamide]	0.001 to 0.1	–	0.01 to 0.1	10 to 30	–	–	–
C[C@H](NC(=O)c1ccc2c(c1)c1cn(C)nc1n2-c1ccc(C(F)(F)F)cc1)c1ccccn1 [Example C105, 2-methyl-N-[(1S)-1-(pyridin-2-yl)ethyl]-8-[4-(trifluoromethyl)phenyl]-2H,8H-pyrazolo[3,4-b]indole-5-carboxamide]	0.001 to 0.1	> 30	0.01 to 0.1	–	–	–	–
Cn1cc2c3cc(N=S(C)(C)=O)ccc3n(-c3ccc(C(F)(F)F)cc3)c2n1 [Example C106, dimethyl({2-methyl-8-[4-(trifluoromethyl)phenyl]-2H,8H-pyrazolo[3,4-b]indol-5-yl}imino)-\6-sulfanone]	0.1 to 1	> 30	0.01 to 0.1	–	–	–	–
Cn1cc2c3nc(C(=O)N=S(C)(C)=O)ccc3n(-c3ccc(C(F)(F)F)cc3)c2n1 [Example C108, N-[dimethyl(oxo)-λ^6-sulfanylidene]-4-methyl-7-[4-(trifluoromethyl)phenyl]-4,5,7,12-tetraazatricyclo [6.4.0.0^∧{^2,6}]dodeca-1(8),2,5,9,11-pentaene-11-carboxamide]	0.1 to 1	> 30	–	–	> 30	–	–
Cn1cc2c3cc(C(=O)O)cnc3n(-c3ccc(C(F)(F)F)cc3)c2n1 [Example C110, 4-methyl-7-[4-(trifluoromethyl)phenyl]-4,5,7,9-tetraazatri-cyclo[6.4.0.0^2,6]dodeca-1(8),2,5,9,11-pentaene-11-carboxylic acid]	–	> 30	–	–	–	0.1 to 1	0.01 to 0.1
Cn1cc2c3nc(C(=O)N=S(C)(=O)CCCO)ccc3n(-c3ccc(C(F)(F)F)cc3)c2n1 (stereo not drawn) [Example C117, N-[(3-hydroxypropyl)(methyl)oxo- \6-sulfanylidene]-4-methyl-7-[4-(trifluoromethyl)phenyl]-4,5,7,12-tetraazatricyclo[6.4.0.0^2,6∧{2,6}]dodeca-1(8),2,5,9,11-pentaene-11-carboxamide]	0.1 to 1	> 30	–	–	> 1	–	–
C[C@H](NC(=O)c1ccc2c(n1)c1cn(C)nc1n2-c1ccc(C(F)(F)F)cc1)c1ccccn1 [Example C119, 4-methyl-N-[(1S)-1-(pyridin-2-yl)ethyl]-7-[4-(trifluoromethyl)phenyl]-4,5,7,12-tetraazatricyclo[6.4.0.0^2,6]dodeca-1(8),2,5,9,11-pentaene-11-carboxamide]	0.001 to 0.1	> 30	0.01 to 0.1	–	–	–	–
Cc1snc2c1c1cc(C(N)=O)ccc1n2-c1ccc(C(F)(F)F)cc1 [Example C120, 3-methyl-8-[4-(trifluoromethyl)phenyl]-8H-[1,2]thiazolo[3,4-b]indole-5-carboxamide]	0.001 to 0.1	> 30	0.01 to 0.1	–	–	–	–
Cc1snc2c1c1cc(C(=O)NCCn3ccnc3)ccc1n2-c1ccc(C(F)(F)F)cc1 [Example C121]	0.001 to 0.1	> 30	0.01 to 0.1	–	–	–	–
